Test results taken from ChEMBL document CHEMBL3826915, “Design and comparative anticonvulsant activity assessment of CNS-active alkyl-carbamoyl imidazole derivatives” (Bioorg Med Chem, 2016).
Calls of active or inactive are those of the source. The rule behind the calls is not given here.

Assays:
[1] = Protective index, ratio of TD50 for neurotoxicity in ip dosed albino CF1 mouse to ED50 for anticonvulsant activity in ip dosed maximal electroshock-induced seizure albino CF1 mouse model; type: toxicity, organism-based; settings: in vivo, read-out: Ratio TD50/ED50
Rattus norvegicus [2] = test: Neurotoxicity in albino Sprague-Dawley rat assessed as behavioral impairment at 30 mg/kg, ip after 0.25 hrs by rotorod test; type: toxicity, organism-based; settings: in vivo
Mus musculus [3] = test: Neurotoxicity in albino CF1 mouse assessed as behavioral impairment at 100 mg/kg, ip after 2 hrs by rotorod test; type: toxicity, organism-based; settings: in vivo
Mus musculus [4] = test: Anticonvulsant activity in albino CF1 mouse assessed as protection against maximal electroshock-induced seizures at 100 mg/kg, ip after 2 hrs; type: functional, organism-based
Mus musculus [5] = test: Neurotoxicity in albino CF1 mouse assessed as behavioral impairment at 300 mg/kg, ip after 0.5 hrs by rotorod test; type: toxicity, organism-based; settings: in vivo
Mus musculus [6] = test: Neurotoxicity in albino CF1 mouse assessed as behavioral impairment at 100 mg/kg, ip after 1 hr by rotorod test; type: toxicity, organism-based; settings: in vivo
[7] = Protective index, ratio of TD50 for neurotoxicity in ip dosed albino CF1 mouse to ED50 for anticonvulsant activity in ip dosed […] metrazol-induced seizure albino CF1 mouse model; type: toxicity, organism-based; settings: in vivo, read-out: Ratio TD50/ED50
[8] = Neurotoxicity in ip dosed albino CF1 mouse assessed as motor impairment by rotorod test; type: toxicity, organism-based; settings: in vivo
Rattus norvegicus [9] = test: Neurotoxicity in albino Sprague-Dawley rat assessed as behavioral impairment at 30 mg/kg, ip after 2 hrs by rotorod test; type: toxicity, organism-based; settings: in vivo
Mus musculus [10] = test: Anticonvulsant activity in ip dosed albino CF1 mouse assessed as protection against maximal electroshock-induced seizures; type: functional
Mus musculus [11] = test: Neurotoxicity in albino CF1 mouse assessed as behavioral impairment at 300 mg/kg, ip after 2 hrs by rotorod test; type: toxicity, organism-based; settings: in vivo
Rattus norvegicus [12] = test: Neurotoxicity in albino Sprague-Dawley rat assessed as behavioral impairment at 30 mg/kg, po after 0.5 hrs by rotorod test; type: toxicity, organism-based; settings: in vivo
Rattus norvegicus [13] = test: Anticonvulsant activity in albino Sprague-Dawley rat assessed as protection against maximal electroshock-induced seizures at 30 mg/kg, ip after 0.5 hrs; type: functional, organism-based
Mus musculus [14] = test: Anticonvulsant activity in albino CF1 mouse assessed as protection against maximal electroshock-induced seizures at 30 mg/kg, ip after 2 hrs; type: functional, organism-based
Rattus norvegicus [15] = test: Neurotoxicity in albino Sprague-Dawley rat assessed as behavioral impairment at 30 mg/kg, ip after 0.5 hrs by rotorod test; type: toxicity, organism-based; settings: in vivo
Mus musculus [16] = test: Neurotoxicity in albino CF1 mouse assessed as behavioral impairment at 100 mg/kg, ip after 0.25 hrs by rotorod test; type: toxicity, organism-based; settings: in vivo
Mus musculus [17] = test: Neurotoxicity in albino CF1 mouse assessed as behavioral impairment at 100 mg/kg, ip after 0.5 hrs by rotorod test; type: toxicity, organism-based; settings: in vivo
Rattus norvegicus [18] = test: Anticonvulsant activity in albino Sprague-Dawley rat assessed as protection against maximal electroshock-induced seizures at 30 mg/kg, po after 0.25 hrs; type: functional, organism-based
Mus musculus [19] = test: Anticonvulsant activity in albino CF1 mouse assessed as protection against 32 mA current-induced seizure at 30 mg/kg, ip after 2 hrs by 6 Hz psychomotor test; type: functional, organism-based
Mus musculus [20] = test: Neurotoxicity in albino CF1 mouse assessed as behavioral impairment at 30 mg/kg, ip after 0.5 hrs by rotorod test; type: toxicity, organism-based; settings: in vivo
Mus musculus [21] = test: Anticonvulsant activity in ip dosed albino CF1 mouse assessed as protection against maximal electroshock-induced seizures by measuring time to peak effect; type: functional
Mus musculus [22] = test: Anticonvulsant activity in albino CF1 mouse assessed as protection against 44 mA current-induced seizure at 100 mg/kg, ip after 0.5 hrs by 6 Hz psychomotor test; type: functional, organism-based
Mus musculus [23] = test: Anticonvulsant activity in albino CF1 mouse assessed as protection against maximal electroshock-induced seizures at 100 mg/kg, ip after 0.5 hrs; type: functional, organism-based
Mus musculus [24] = test: Anticonvulsant activity in albino CF1 mouse assessed as protection against 44 mA current-induced seizure at 100 mg/kg, ip after 0.25 hrs by 6 Hz psychomotor test; type: functional, organism-based
Rattus norvegicus [25] = test: Neurotoxicity in albino Sprague-Dawley rat assessed as behavioral impairment at 30 mg/kg, po after 1 hr by rotorod test; type: toxicity, organism-based; settings: in vivo
Mus musculus [26] = test: Anticonvulsant activity in ip dosed albino CF1 mouse assessed as protection against 6 Hz current-induced seizure by measuring time to peak effect; type: functional
Mus musculus [27] = test: Anticonvulsant activity in ip dosed albino CF1 mouse assessed as protection against subcutaneous metrazol-induced seizures by measuring time to peak effect; type: functional
Mus musculus [28] = test: Anticonvulsant activity in ip dosed albino CF1 mouse assessed as protection against 6 Hz current-induced seizures by psychomotor test; type: functional
Rattus norvegicus [29] = test: Neurotoxicity in albino Sprague-Dawley rat assessed as behavioral impairment at 30 mg/kg, po after 0.25 hrs by rotorod test; type: toxicity, organism-based; settings: in vivo
Mus musculus [30] = test: Neurotoxicity in albino CF1 mouse assessed as behavioral impairment at 30 mg/kg, ip after 2 hrs by rotorod test; type: toxicity, organism-based; settings: in vivo
Rattus norvegicus [31] = test: Neurotoxicity in albino Sprague-Dawley rat assessed as behavioral impairment at 30 mg/kg, po after 2 hrs by rotorod test; type: toxicity, organism-based; settings: in vivo
Rattus norvegicus [32] = test: Neurotoxicity in albino Sprague-Dawley rat assessed as behavioral impairment at 30 mg/kg, ip after 1 hr by rotorod test; type: toxicity, organism-based; settings: in vivo
Mus musculus [33] = test: Anticonvulsant activity in ip dosed albino CF1 mouse assessed as protection against subcutaneous metrazol-induced seizures; type: functional
Mus musculus [34] = test: Anticonvulsant activity in albino CF1 mouse assessed as protection against 44 mA current-induced seizure at 50 mg/kg, ip after 0.25 hrs by 6 Hz psychomotor test; type: functional, organism-based
Mus musculus [35] = test: Anticonvulsant activity in albino CF1 mouse assessed as protection against 44 mA current-induced seizure at 50 mg/kg, ip after 1 hr by 6 Hz psychomotor test; type: functional, organism-based
Mus musculus [36] = test: Neurotoxicity in albino CF1 mouse assessed as behavioral impairment at 50 mg/kg, ip after 1 hr by rotorod test; type: toxicity, organism-based; settings: in vivo
Rattus norvegicus [37] = test: Anticonvulsant activity in albino Sprague-Dawley rat assessed as protection against maximal electroshock-induced seizures at 30 mg/kg, po after 2 hrs; type: functional, organism-based
Rattus norvegicus [38] = test: Anticonvulsant activity in ip dosed albino Sprague-Dawley rat assessed as protection against subcutaneous metrazol-induced seizures; type: functional
Rattus norvegicus [39] = test: Anticonvulsant activity in ip dosed albino Sprague-Dawley rat assessed as protection against maximal electroshock-induced seizures; type: functional
[40] = Neurotoxicity in ip dosed albino Sprague-Dawley rat assessed as motor impairment by rotorod test; type: toxicity, organism-based; settings: in vivo
Mus musculus [41] = test: Neurotoxicity in albino CF1 mouse assessed as behavioral impairment at 50 mg/kg, ip after 0.25 hrs by rotorod test; type: toxicity, organism-based; settings: in vivo
[42] = Protective index, ratio of TD50 for neurotoxicity in ip dosed albino Sprague-Dawley rat to ED50 for anticonvulsant activity in ip dosed subcutaneous metrazol-induced seizure albino Sprague-Dawley rat model; type: toxicity, organism-based; settings: in vivo, read-out: Ratio TD50/ED50
Rattus norvegicus [43] = test: Anticonvulsant activity in ip dosed albino Sprague-Dawley rat assessed as protection against subcutaneous metrazol-induced seizures by measuring time to peak effect; type: functional
Mus musculus [44] = test: Neurotoxicity in albino CF1 mouse assessed as behavioral impairment at 50 mg/kg, ip after 0.5 hrs by rotorod test; type: toxicity, organism-based; settings: in vivo
[45] = Protective index, ratio of TD50 for neurotoxicity in ip dosed albino Sprague-Dawley rat to ED50 for anticonvulsant activity in ip dosed maximal electroshock-induced seizure albino Sprague-Dawley rat model; type: toxicity, organism-based; settings: in vivo, read-out: Ratio TD50/ED50
Rattus norvegicus [46] = test: Anticonvulsant activity in albino Sprague-Dawley rat assessed as protection against maximal electroshock-induced seizures at 30 mg/kg, po after 1 hr; type: functional, organism-based
Mus musculus [47] = test: Anticonvulsant activity in albino CF1 mouse assessed as protection against 44 mA current-induced seizure at 50 mg/kg, ip after 2 hrs by 6 Hz psychomotor test; type: functional, organism-based
Mus musculus [48] = test: Anticonvulsant activity in albino CF1 mouse assessed as protection against 32 mA current-induced seizure at 30 mg/kg, ip after 0.5 hrs by 6 Hz psychomotor test; type: functional, organism-based
Mus musculus [49] = test: Neurotoxicity in albino CF1 mouse assessed as behavioral impairment at 50 mg/kg, ip after 2 hrs by rotorod test; type: toxicity, organism-based; settings: in vivo
Rattus norvegicus [50] = test: Anticonvulsant activity in ip dosed albino Sprague-Dawley rat assessed as protection against maximal electroshock-induced seizures by measuring time to peak effect; type: functional
Homo sapiens = test: Anticonvulsant activity in patient assessed as improvement in seizure control at 600 mg/day administered up to 1 year; type: functional
Mus musculus [51] = test: Anticonvulsant activity in ip dosed AGS-susceptible frings albino CF1 mouse assessed as protection against sound-induced seizures; type: functional
[52] = Protective index, ratio of TD50 for neurotoxicity in ip dosed albino CF1 mouse to ED50 for anticonvulsant activity in ip dosed 6 Hz current-induced seizure albino CF1 mouse model; settings: in vivo
[53] = Protective index, ratio of TD50 for neurotoxicity in ip dosed albino CF1 mouse to ED50 for protection against sound-induced seizures in ip dosed AGS-susceptible frings albino CF1 mouse; type: toxicity, organism-based; settings: CF1 (ED50 arm: AGS-susceptible Frings), in vivo, read-out: Ratio TD50/ED50
[54] = Clearance in human; type: ADME, organism-based; settings: in vivo
[55] = Volume of distribution in human; type: ADME, organism-based; settings: in vivo
[56] = Half life in human; type: ADME, organism-based; settings: in vivo

CCC(CC)COC(=O)NCCCn1ccnc1
selectivity ratio [1]: 3.9
Activity (Rattus norvegicus [2]): Non-toxic
Activity (Mus musculus [3]): Non-toxic
Activity (Mus musculus [4]): Active
Activity (Mus musculus [5]): Toxic
Activity (Mus musculus [6]): Non-toxic
selectivity ratio [7]: 1.2
TD50 [8]: 102 mg/kg
Activity (Rattus norvegicus [9]): Non-toxic
ED50 (Mus musculus [10]): 26 mg/kg
Activity (Mus musculus [11]): Toxic
Activity (Rattus norvegicus [12]): Non-toxic
Activity (Rattus norvegicus [13]): Active
Activity (Mus musculus [14]): inactive
Activity (Rattus norvegicus [15]): Non-toxic
Activity (Mus musculus [16]): Toxic
Activity (Mus musculus [17]): Toxic
Activity (Rattus norvegicus [18]): inactive
Activity (Mus musculus [19]): inactive
Activity (Mus musculus [20]): Non-toxic
Time (Mus musculus [21]): 0.5 h
Activity (Mus musculus [22]): Active
Activity (Mus musculus [23]): Active
Activity (Mus musculus [24]): Active
Activity (Rattus norvegicus [25]): Non-toxic
Time (Mus musculus [26]): 0.5 h
Time (Mus musculus [27]): 0.5 h
ED50 (Mus musculus [28]): inactive
Activity (Rattus norvegicus [29]): Non-toxic
Activity (Mus musculus [30]): Non-toxic
Activity (Rattus norvegicus [31]): Non-toxic
Activity (Rattus norvegicus [32]): Non-toxic
ED50 (Mus musculus [33]): > 85 mg/kg

CCCC(COC(=O)NCCCn1ccnc1)C(C)CC (centres undefined)
selectivity ratio [1]: 2.8
Activity (Rattus norvegicus [2]): Non-toxic
Activity (Mus musculus [3]): Non-toxic
Activity (Mus musculus [5]): Toxic
selectivity ratio [7]: 0.67
TD50 [8]: 67 mg/kg
Activity (Mus musculus [34]): inactive
Activity (Mus musculus [35]): inactive
Activity (Rattus norvegicus [9]): Non-toxic
Activity (Mus musculus [36]): Non-toxic
Activity (Rattus norvegicus [37]): inactive
ED50 (Mus musculus [10]): 24 mg/kg
ED50 (Rattus norvegicus [38]): > 95 mg/kg
ED50 (Rattus norvegicus [39]): 20 mg/kg
Activity (Mus musculus [11]): Toxic
Activity (Rattus norvegicus [12]): Non-toxic
Activity (Mus musculus [14]): inactive
Activity (Rattus norvegicus [15]): Non-toxic
TD50 [40]: 96 mg/kg
Activity (Mus musculus [41]): Non-toxic
selectivity ratio [42]: 1
Time (Rattus norvegicus [43]): 0.25 h
Activity (Mus musculus [19]): inactive
Activity (Mus musculus [20]): Non-toxic
Time (Mus musculus [21]): 0.5 h
Activity (Mus musculus [44]): Non-toxic
selectivity ratio [45]: 4.8
Activity (Mus musculus [23]): Active
Activity (Rattus norvegicus [25]): Non-toxic
Time (Mus musculus [26]): 0.5 h
Time (Mus musculus [27]): 0.5 h
Activity (Rattus norvegicus [46]): inactive
ED50 (Mus musculus [28]): inactive
Activity (Mus musculus [47]): inactive
Activity (Rattus norvegicus [29]): Non-toxic
Activity (Mus musculus [48]): inactive
Activity (Mus musculus [49]): Non-toxic
Activity (Mus musculus [30]): Non-toxic
Activity (Rattus norvegicus [31]): Non-toxic
Activity (Rattus norvegicus [32]): Non-toxic
ED50 (Mus musculus [33]): > 100 mg/kg
Time (Rattus norvegicus [50]): 0.25 h

O=C(Cn1ccnc1)c1ccc2ccccc2c1 [NAFIMIDONE]
Activity (Homo sapiens): 33%

CCCC(C(N)=O)C(C)CC (centres undefined)
selectivity ratio [7]: 2.3
TD50 [8]: 48 mg/kg
ED50 (Mus musculus [51]): 20 mg/kg
Time (Mus musculus [21]): 0.5 h
Time (Mus musculus [26]): 0.5 h
Time (Mus musculus [27]): 0.5 h
ED50 (Mus musculus [28]): 27 mg/kg
selectivity ratio [52]: 1.8
selectivity ratio [53]: 2.4
ED50 (Mus musculus [33]): 21 mg/kg

OC(Cn1ccnc1)c1ccc(CCc2ccccc2)cc1 (centres undefined) [DENZIMOL]
clearance [54]: 5 mL/min/kg
Vd [55]: 3 L/kg
half-life [56]: 300 min
